The values below are quoted from earlier work in US20120015039A1, “SUSTAINED RELEASE OF NUTRIENTS IN VIVO” (New World Pharmaceuticals, LLC, priority 2007, published 2012).

Broadly, the LD50 is the dose at which mortality reaches 50%.

In one data set the test system is mice. Particulars: mouse, in vivo, iv.

For `[O]=[V]([O-])([O-])[O-]` [vanadate], the “concentration at which formation of EP is inhibited” value in the data set on Na/K ATPase is “less than 1 micromolar”.

As to `COC(=O)C1=CO[C@@H](O)[C@@H]2C(CO)=CC[C@H]12` [Genipin], the LD50 in the data set on mice is recorded as 382 mg/kg.
